Source: US8642785B2, “Photolabile dinitroindolinyl based compounds” (Philadelphia Health & Education Corporation, priority 2007, dated 2014)
Values joined by “and” are separate entries in the source; they are usually repeats but may differ in a detail not shown here. Equal entries are not always repeated.

Assays:
GABA receptors [1] = conditions: outside-out membrane patches (Jayaraman, et al., 1999); cited from earlier work
[2] = laser flash photolysis (Gee, et al., 1994); cited from earlier work
[3] = Two-photon (action) cross section; format: physicochemical; conditions: for δ (relative), two-photon action cross section: MNI-Glu = 1
Method: (§1) What is the reason for continued focus on cage development? […] The first good caged glutamate was CNB-Glu (Weiboldt, et al., 1994). UV-laser excitation released glutamate quickly and with usable efficiency from this caged compound. […] For this reason, Bhc- and DMCNB-Glu were synthesized (Furuta et al., 1999; Ellis-Davies, 1999). […] However, when used for 2-photon photolysis MNI-Glu is applied at high concentrations (5-12 mM) that must be irradiated with powers at the very limit of tolerance for brain tissue (Matsuzaki, et al., 2004). For this reason, an even better caged glutamate is desired. An NI-Glu derivative was made containing a cross-linked benzophenone chromophore (“antenna-NI-Glu”, Papageorgiou, et al., 2004). When UV light (300-308 nm) was used to excite the benzophenone antenna, triplet energy transfer to the MNI cage released glutamate with high efficiency, which dropped considerably (ca. 2.5-fold) at 354 nm. […] In contrast, the inventor was able to uncage CDNI-Glu at 354 nm with very high efficiency (similar to the antenna-NI-Glu at 300 nm).
Given the power-squared law for 2-photon excitation (Denk, et al., 1990), this implies that the new chromophore is about 140-250 higher action cross-section for 2-photon uncaging, defined by Denk et al. (1990).
(§2) In order to evoke currents with CNI-GABA 20 mW for 2 ms and 10 mM must be used, whereas with CDNI-GABA only 4 mW and 0.5 mM are required. […] The effectiveness of CDNI-GABA is believed to be an important asset because high concentrations of the cages block GABA receptor before uncaging.
AMPA receptor currents evoked by 2-photon uncaging of MNI-Glu and CDNI-Glu on CA1 pyramidal neurons in acutely isolated brain slices were compared. An image of neuron from slice of hippocampus Post-natal day 15 (P15) rat brain was obtained. MNI-Glu and CNDI-Glu were applied at 10 mM and 2.5 mM to the same neuron, and glutamate was uncaged in the image area at 2 power levels according to methods previously described in Matsuzaki, et al., 2001 (compare FIGS. 5A & 5B, MNI-Glu currents shown on right hand side, CDNI-Glu currents shown on left hand side). The currents evoked by uncaging from CNDI-Glu were approximately 2-3× larger than MNI-Glu, implying 5-10× better reactivity for 2-photon uncaging.

[4] = Basic photochemical properties: one-photon photolysis / quantum yield determination by comparison with MNI-Glu; format: physicochemical; conditions: for φ, quantum yield: Table 1, measured against MNI-Glu, filtered 280-400 nm Hg lamp; for quantum yield of photolysis: pH 7.4, compared with MNI-Glu; for ε · φ: product of extinction coefficient and quantum yield, in M-1 cm-1 (unit assumed); for photolyzed faster than MNI-Glu: pH 7.4, continuous-wave mercury arc lamp
Method: The data imply that the quantum yield for release of L-glutamate from CDNI-Glu was about 0.5.
The extent of photolysis was measured either by HPLC (with inosine as the internal standard), or using the inherent changes in the UV-visible absorption spectra of the chromophores (FIGS. 4A-4D).
Quantum yield determination. The quantum yield for uncaging the new caged amino acids (CDNI-Glu, CNL-Glu, CNI-GABA and CNI-GABA) were measured by comparing the time of photolysis with the filtered (280-400 nm) output of a 500 W medium pressure Hg lamp of an equimolar solution (0.25 mM) of MNI-Glu and new cage. Inosine was used an inert internal standard. The path-length of the cuvette was 0.1 mm. The extent of reaction was monitored by HPLC as described previously (Huang, et al., 2005). […] Both methods gave very similar results.

[5] = Hydrolysis of solutions stored at 4° C.; format: physicochemical
Method: as §1

GABA receptors [6] = assay: 2-photon uncaging of caged GABA on hippocampal CA1 neurons in acutely isolated brain slices; format: cell-based, rat; conditions: for concentration of caged compound required to evoke currents / laser power required to evoke currents: 2-photon uncaging; for laser power required to evoke currents: 720 nm; for block of GABA receptor by the cage before uncaging: CNI-GABA at high concentrations, CDNI-GABA in smaller amount
[7] = Solubility in physiological buffer; format: physicochemical; conditions: for solubility (in words): physiological buffer / pH
Method: as §2
Advantageously, inventor had discovered that addition of the negative charge with CDNI-Glu solves both of these problems

AMPA receptors = assay: 2-photon uncaging of caged glutamate, AMPA receptor currents on CA1 pyramidal neurons in acutely isolated brain slices; format: cell-based, rat
[8] = 1 GM=10^−50 cm^4s/photon; background; cited from earlier work
[9] = background; cited from earlier work

NCCCC(=O)OC(C(=O)O)c1ccccc1[N+](=O)[O-] (centres unmarked) [CNB-GABA]
10-90% rise time of activated currents (GABA receptors [1]): about 8 ms
half-time of neurotransmitter release [2]: about 30 microseconds

NC(CCC(=O)N1CCc2c(OCC(=O)O)ccc([N+](=O)[O-])c21)C(=O)O (centres unmarked) [CNI-Glu, 4-carboxymethoxy-7-nitroinlinylglutamate]
δ (relative), two-photon action cross section [3]: 1
ε, molar extinction coefficient [4]: 4,300 M^−1 cm^−1
fraction photolyzed during the time required for complete photolysis of CDNI-Glu ([4]; NMR analysis of a photolysis solution of 7, CNI-Glu and CDNI-Glu): about 10%
φ, quantum yield [4]: 0.1
quantum yield of photolysis [4]: about 0.1
ε · φ [4]: 430

COc1ccc([N+](=O)[O-])c2c1CCN2C(=O)CC[C@H](N)C(=O)O [MNI-Glu, Methoxynitroindoline-caged L-glutamate, reference compound]
hydrolysis after 2 d [5]: no detectable hydrolysis
hydrolysis after 13 d [5]: 1%
δ (relative), two-photon action cross section [3]: 1
ε, molar extinction coefficient [4]: 4,300 M^−1 cm^−1
φ, quantum yield [4]: 0.085
ε · φ [4]: 366

NCCCC(=O)N1CCc2c(OCC(=O)O)c([N+](=O)[O-])cc([N+](=O)[O-])c21 [CDNI-GABA, (1-[4-Aminobutanoyl]-5,7-dinitroindolin-4-yloxy)acetic acid]
δ (relative), two-photon action cross section [3]: 5-10
concentration of caged compound required to evoke currents (GABA receptors [6]): 0.5 mM and 0.55 mM
laser power required to evoke currents (GABA receptors [6]): 4 mW
block of GABA receptor by the cage before uncaging (GABA receptors [6]): not blocking before uncaging
effectiveness relative to CNI-GABA (GABA receptors [6]; GABA receptors on CA1 neurons): 5-10 times
ε, molar extinction coefficient [4]: 8,600 M^−1 cm^−1
φ, quantum yield [4]: 0.6
quantum yield of photolysis [4]: 0.6
photolyzed faster than MNI-Glu [4]: 700%
ε · φ [4]: 5160

N[C@@H](CCC(=O)N1CCc2c(OCC(=O)O)c([N+](=O)[O-])cc([N+](=O)[O-])c21)C(=O)O [CDNI-Glu]
hydrolysis after 13 d [5]: 7%
solubility (in words) [7]: smooth solubilization of useful concentrations
action cross-section for 2-photon uncaging, higher than MNI-Glu ([3]; implied by power-squared law for 2-photon excitation): 140-250
δ (relative), two-photon action cross section [3]: 5-10
ε, molar extinction coefficient [4]: 8,600 M^−1 cm^−1
release of L-glutamate on photolysis ([4]; NMR analysis of the reaction mixture): essentially quantitatively
φ, quantum yield [4]: 0.5
quantum yield for release of L-glutamate ([4]; pH 7.4): about 0.5
quantum yield of photolysis [4]: about 0.5
ε · φ [4]: 4,300
currents evoked by 2-photon uncaging, times larger than MNI-Glu (AMPA receptors; 2.5 mM vs MNI-Glu 10 mM on the same neuron, P15 rat hippocampus slice, listed as CNDI-Glu): 2-3 times and 3-4 times
biological inertness of the cage toward AMPA receptors (AMPA receptors; before uncaging): biologically inert
rise- and decay-times of the evoked currents compared with MNI-Glu (AMPA receptors; same CA1 pyramidal neuron): similar
AMPA-receptor currents relative to MNI-Glu (AMPA receptors; sequential alternating application and uncaging on the same CA1 pyramidal neuron, same laser energy): five-times larger

COc1c([N+](=O)[O-])cc([N+](=O)[O-])c2c1CCN2C(=O)CCC(N)C(=O)O (centres unmarked) [MDNI-Glu, 4-methoxy-5,7-dinitroinlinylglutamate]
concentration of solutions that could be made [7]: ≥ 1000 µM
behaviour of buffer solution when frozen ([7]; buffer, frozen, then room temperature): precipitate in buffer when frozen
current signals from hippocampal neurons on 2-photon uncaging (AMPA receptors; 1 mM solutions): did not evoke any current signals

COc1ccc([N+](=O)[O-])c2c1CCN2C(=O)CCCN [MNI-GABA]
solubility (in words) [7]: not soluble enough for uncaging

N[C@@H](CCC(=O)OC(C(=O)O)c1ccccc1[N+](=O)[O-])C(=O)O (some centres unmarked) [CNB-Glu]
2-photon cross section [8]: less than 0.001 GM
hydrolytic stability (in words) [9]: some what hydrolytically unstable

NCCCC(=O)N1CCc2c(OCC(=O)O)ccc([N+](=O)[O-])c21 [CNI-GABA]
δ (relative), two-photon action cross section [3]: 1
concentration of caged compound required to evoke currents (GABA receptors [6]): 10 mM
laser power required to evoke currents (GABA receptors [6]): 20 mW
block of GABA receptor by the cage before uncaging (GABA receptors [6]): partially blocks
ε, molar extinction coefficient [4]: 4,300 M^−1 cm^−1
φ, quantum yield [4]: 0.1
quantum yield of photolysis [4]: 0.1
photolyzed faster than MNI-Glu [4]: about 10%
ε · φ [4]: 430
